SMILES strings stand for the structures. “Also recorded” adds a separate entry of the source. Where a name gives a salt, the structure may show the parent alone.

Here are results for five compounds from patent US20050043264A1, “Methods of inhibiting neurodegenerative disease” (priority 2003, published 2005).

The subject of experiment [1] is Cdk5. Put plainly: In vitro Cdk5 kinase assay of immunoprecipitates with histone H1 as substrate, BG2-c2 cells. In kind it is cell-based, Drosophila melanogaster. The note with it: for Abl kinase activity regulation, used to confirm Abl requirement for modulation of Cdk5 kinase: BG2-c2 cells, other Abl kinase regulating agents. How it is done: (§1) A kinase assay was performed by washing immunoprecipitates three times with kinase reaction buffer (50 mM HEPES [pH 7.0], 10 mM MgCl2, and 1 mM DTT). The beads with target proteins were incubated with kinase reaction buffer containing 2 μg of substrate (histone H1)(Calbiochem, San Diego, Calif.) and 10 μCi of ^33Pγ-ATP in a final volume of 40 μl at 30° C. for 30 minutes.
Whether Cdk5 was activated in the Abl-Cdk5 complex was also investigated. Cdk5 was immunoprecipitated from the cell lysate for an vitro kinase assay, using histone H1 as a substrate (Connell-Crowley et al., 2000, Curr. Biol. 10:599). Similar to results reported for mammalian cells (Alvarez et al., 2001, Exp. Cell Res. 264:266), Drosophila Cdk5 kinase activity was elevated following Aβ42 treatment as compared to controls (FIG. 2B, bottom panel). […] Moreover, other Abl kinase regulating agents including doxorubicin (DX) and erbstatin analog (EA) were used to activate or suppress Abl kinase activity, respectively, and confirmed that Abl kinase activity was required for modulation of Cdk5 kinase.

In the next experiment the test system is BG2-c2 neuronal cells. Put plainly: Cdk5 subcellular translocalization by immunostaining and confocal microscopy. The class given is cell-based, Drosophila melanogaster. The note with it: 2 μM Aβ42 one hour, agent given simultaneously with or before Aβ42 (BL-1 5 μM).
The subject of another experiment is IMR-32 cells. Put plainly: Neuronal viability, Aβ42-induced IMR-32 neuronal death. In kind it is cell-based, human. The note with it: IMR-32 cells pretreated 24 hours with STI571, then Aβ42 24 or 72 hours. As to the method:
(§2) The modified MTT assay (Sigma, St Louis, Mo.) was used to quantify neuronal cell viability (Lee et al., 2000, Nature 405:360). The intensities were measured using an optical density reader (SpectroMAXplus, Molecular Devices, Sunnyvale, Calif.) at 570 nm (background: 630 nm) and proportionally represented the viable cell numbers.
(§3) To determine if the role of Abl in Drosophila neurodegeneration is conserved in mammals, Abl kinase activity in Aβ42-induced mammalian neuronal apoptosis was investigated. […] Formation of p25 has been considered a causative agent that contributes to the deregulation of Cdk5 in human AD (Lee et al., 2000, Nature 405:360; Patrick et al., 1999, Nature 402:615). […] Thus, it was important to determine whether the conversion of p35 into p25 is sufficient to deregulate Cdk5 activity while Abl activation is inhibited. […] The cells were then assayed for Cdk5 kinase activity and Y-15 phosphorylation.

In experiment [2] the test system is Cdk5. Put plainly: Cdk5 kinase activity in Aβ42-treated IMR-32 cells (histone H1 kinase assay). In kind it is cell-based, human. The following applies: Aβ42 (20 μM) 24 hours, STI571 pretreatment 24 hours. As to the method: as §1, §3
For experiment [3], the system named is Cdk5-pY15. Put plainly: Cdk5-pY15 in Aβ42-treated IMR-32 cells (immunoblot). In kind it is cell-based, human. The following applies: Aβ42 (20 μM) 24 hours, STI571 pretreatment 24 hours. How it is done: (§4) Cell lysate was produced in lysis buffer or extract buffer (Juang and Hoffmann,1999, Oncogene 18:5138) for Cdk5 immunoprecipitation. Proteins were analyzed by direct Western blotting (30 μg/lane) or blotting after immunoprecipitation (1˜2 mg/immunoprecipitation). Immunoprecipitates were collected by binding to protein G PLUS/Protein A-Agarose (Oncogene Research Products, Nottingham UK). The antibodies used are listed below: anti-Cdk5 antibody (clone DC17), (Upstate, Charlottesville, Va.); sc-750, (Santa Cruz Biotechnology, Inc., Santa Cruz Calif.), anti-Cdk5-pY15 antibody (sc-1 2919),(Santa Cruz Biotechnology, Inc., Santa Cruz C), anti-HA antibody (BAbCO, Berkely, Calif.), anti-p35 antibody (sc-820), (Santa Cruz Biotechnology, Inc., Santa Cruz Calif.), and affinity-purified Ena polyclonal antibody (generated by Dr. F. M. Hoffmann' Lab) (McArdle Laboratory for Cancer Research and Laboratory of Genetics, University of Wisconsin-Madison) ECL detection reagent (NEN, Boston, Mass.) was used to detect the immunoreactive proteins.
(§5) To determine if the role of Abl in Drosophila neurodegeneration is conserved in mammals, Abl kinase activity in Aβ42-induced mammalian neuronal apoptosis was investigated. […] Formation of p25 has been considered a causative agent that contributes to the deregulation of Cdk5 in human AD (Lee et al., 2000, Nature 405:360; Patrick et al., 1999, Nature 402:615). […]

In another experiment the test system is BG2-c2 cells. Description: Modified MTT cell viability assay, Aβ42-induced neuronal death. In kind it is cell-based, Drosophila melanogaster. The following applies: BG2-c2 cells treated with Aβ42; dsRNA transfected two days before Aβ42 for 24 hours. As to the method: as §2
Experiment [4] has as its system Cdk5-pY15. Description: Cdk5-Y15 phosphorylation (Cdk5-pY15) immunoblot, BG2-c2 cells. The note with it: Aβ42 (2 μM)-treated BG2-c2 cells; STI571 20 μM 60 minutes; dsRNA 20 μg/2×10^6 cells two days before Aβ42. The class given is cell-based, Drosophila melanogaster. As to the method:
To understand the role of Drosophila Cdk5 in neurodegeneration, the phosphorylation of Cdk5-Y15 was investigated to determine if it was correlated with the pathological activation of Cdk5 in neuronal cells. Cdk5-Y15 phosphorylation (Cdk5-pY15) levels in BG2-c2 cells were examined over time following treatment with 2 μM Aβ42. The presence of […] in the immunoprecipitates was shown by immunoblotting with an anti-phospho antibody specific for Cdk5-pY15. Within 60 minutes, Aβ42 caused an elevation of Cdk5-pY15, which was coincident with an increase in Cdk5 kinase activity (FIG. 4A). […] Moreover, dsRNA-abl (20 μg/2×10^6 cells) was transfected into BG2-c2 cells to reduce Abl expression two days before Aβ42 treatment.

The subject of the next experiment is p35. Description: Cleavage of p35 into p25 in Aβ42-treated IMR-32 cells (immunoblot). In kind it is cell-based, human. The following applies: Aβ42 (20 μM) 24 hours, STI571 pretreatment 24 hours. How it is done: as §4, §5
The next experiment concerns Dp35. Put plainly: Dp35 cleavage in HA-tagged Dp35 transfected BG2-c2 cells (anti-HA immunoblot). The following applies: BG2-c2 cells with HA-tagged Dp35, A23187 with 5 μM CaCl2, 24 hours. In kind it is cell-based, Drosophila melanogaster. The text has this: Like Abl, p35 is conserved in Drosophila and functions to modulate Cdk5 activity during neurite outgrowth (Connell-Crowley et al., 2000, Curr. Biol. 10:599). In the AD brain, mammalian p35 is cleaved into p25 by calpain to deregulate Cdk5 (Lee et al., 2000, Nature 405:360). Although a putative calpain is also present in Drosophila (Jekely and Friedrich, 1999, J. Biol. Chem. 274:23893), the consensus calpain cleavage site is absent in Drosophila p35 (Dp35) (FIG. 5A). Therefore, it was unclear whether Dp35 would be converted into p25 upon Aβ42 stimulation. To investigate this possibility, carboxyl-terminal HA-tagged Dp35 was transfected into BG2-c2 cells before treating them with Aβ42or A23187/Ca^2+ (calcium ionophore). […] To analyze the Dp35 cleavage in vivo, transgenic flies co-expressing Dp35 and Aβ42 in the developing eyes were generated using a gmr-GAL4 driver. Consistent with the in vitro result, no visible cleavage or reduction of the Dp35 protein in the Aβ42 transgenic flies were observed (FIG. 5B, right panel).

In the case of `COc1cccc2c1C(=O)c1c(O)c3c(c(O)c1C2=O)C[C@@](O)(C(=O)CO)C[C@@H]3O[C@H]1C[C@H](N)[C@H](O)[C@H](C)O1` [doxorubicin], the “Abl kinase activity regulation, used to confirm Abl requirement for modulation of Cdk5 kinase” value with Cdk5 [1] is “activate”.
As to `Cc1ccc(NC(=O)c2ccc(CN3CCN(C)CC3)cc2)cc1Nc1nccc(-c2cccnc2)n1` [STI571, imatinib mesylate], in the experiment with BG2-c2 neuronal cells, the “Aβ42-stimulated Cdk5 translocalization to the perinuclear cytoplasm” value is given as “markedly suppressed; also recorded: no Abl or Cdk5 protein translocalization to perinuclear region”. In the experiment with IMR-32 cells, the “Aβ42-induced IMR-32 neuronal death (neuronal viability)” value is given as “rescued the neuronal death; also recorded: effectively suppressed”. In addition, the Cdk5 kinase activity entry with Cdk5 [2] was “abolished; also recorded: suppressed”. The “Cdk5 kinase activity (histone H1 phosphorylation)” value with Cdk5 [1] (Aβ42 (2 μM)-treated BG2-c2 cells, STI571 20 μM 60 minutes, dsRNA 20 μg/2×10^6 cells two days before Aβ42) is listed as “sharply diminished; also recorded: reduced”. Moreover, in the experiment with Cdk5-pY15 [3], the “Cdk5-pY15 (Y15 phosphorylation)” value is “abolished; also recorded: suppressed”. In the experiment with BG2-c2 cells, the “Aβ42-induced neuronal death (neuronal viability, MTT)” value is recorded as “rescued Aβ42-induced neuronal death; also recorded: suppressed”. Moreover, in the experiment on Cdk5-pY15 [4], the “Cdk5-pY15 (Cdk5-Y15 phosphorylation)” value is given as “diminished; also recorded: reduced”.
Consider `COC(=O)C=Cc1cc(O)ccc1O` [erbstatin analog, 2,5-dihydroxymethylcinnamate], for which the “Abl kinase activity regulation, used to confirm Abl requirement for modulation of Cdk5 kinase” value with Cdk5 [1] was “suppress”.
For the compound `CCCC[C@@H](C=O)NC(=O)[C@H](CC(C)C)NC(=O)OCc1ccccc1` [Calpeptin], the “Cleavage of p35 into p25 (formation of p25)” value in the experiment on p35 was “blockade of p35 cleavage”. The Cdk5 kinase activity entry in the experiment on Cdk5 [2] is given as “considerably reduced”. Further, the “Cdk5-pY15 (Y15 phosphorylation)” value in the experiment on Cdk5-pY15 [3] was “did not diminish”.
With `CNc1ccc2oc(C[C@H]3O[C@@]4(CC[C@H]3C)O[C@H]([C@H](C)C(=O)c3ccc[nH]3)[C@H](C)C[C@H]4C)nc2c1C(=O)O` [A23187], in the experiment on Dp35, the “Dp35 cleavage / Dp35 protein levels” value is “no noticeable cleavage or reduction; also recorded: no detectable cleavage or reduction”.
